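How tested: cells in 96-well plates exposed to compound for 48 hours at five concentrations. The concentration for 50% growth inhibition is given as GI50.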 The source made the active and inactive calls. No stated cut-off is given here; in the data, active = GI50 up to about 1.1 µM and inactive = higher.
Experiments:
Assay in all cases: NCI-60 cell line screen, 48 h
[1] = tested on: 786-0
[2] = tested on: ACHN
[3] = tested on: HL-60
[4] = tested on: HOP-92
[5] = tested on: IGROV-1
[6] = tested on: KM12
[7] = tested on: LXFL 529
[8] = tested on: MOLT-4
[9] = tested on: NCI-H226
[10] = tested on: NCI-H23
[11] = tested on: OVCAR-8
[12] = tested on: SF-268
[13] = tested on: SNB-19
[14] = tested on: UACC-62
[15] = tested on: UO-31
[16] = tested on: HCT-15

SMILES | GI50 [1] | GI50 [2] | GI50 [3] | GI50 [4] | GI50 [5] | GI50 [6] | GI50 [7] | GI50 [8] | GI50 [9] | GI50 [10] | GI50 [11] | GI50 [12] | GI50 [13] | GI50 [14] | GI50 [15] | GI50 [16]
CC(Oc1ccc2c(-c3ccccc3)cc(=O)oc2c1)C(=O)O (stereo not drawn) | > 100 µM (inactive) | > 100 µM (inactive) | > 100 µM (inactive) | > 100 µM (inactive) | > 100 µM (inactive) | > 100 µM (inactive) | > 100 µM (inactive) | > 100 µM (inactive) | > 100 µM (inactive) | > 100 µM (inactive) | > 100 µM (inactive) | > 100 µM (inactive) | > 100 µM (inactive) | > 100 µM (inactive) | > 100 µM (inactive) | –
O=c1ccn([C@@H]2C[C@H](CO)C[S+]([O-])C2)c(=O)[nH]1 (stereo partly drawn) | > 100 µM (inactive) | > 100 µM (inactive) | > 100 µM (inactive) | > 100 µM (inactive) | > 100 µM (inactive) | > 100 µM (inactive) | > 100 µM (inactive) | > 100 µM (inactive) | > 100 µM (inactive) | > 100 µM (inactive) | > 100 µM (inactive) | > 100 µM (inactive) | > 100 µM (inactive) | > 100 µM (inactive) | > 100 µM (inactive) | > 100 µM
CN(CCCCN)c1ccc2c(=O)[nH][nH]c(=O)c2c1 | > 100 µM (inactive) | > 100 µM (inactive) | > 100 µM (inactive) | > 100 µM (inactive) | > 44.9 µM (inactive) | > 100 µM (inactive) | > 100 µM (inactive) | > 100 µM (inactive) | > 100 µM (inactive) | 2.24 µM (inactive) | > 10 µM (inactive) | 13 µM (inactive) | > 10 µM (inactive) | > 41.8 µM (inactive) | > 100 µM (inactive) | > 100 µM
COc1cc2c(cc1O)[C@@]1(Cc3ccc(OC)c(OC)c3)CCC(=O)N1CC2 | > 100 µM (inactive) | > 100 µM (inactive) | > 100 µM (inactive) | 39.8 µM (inactive) | > 100 µM (inactive) | > 100 µM (inactive) | > 100 µM (inactive) | 52 µM (inactive) | > 100 µM (inactive) | > 100 µM (inactive) | > 100 µM (inactive) | > 100 µM (inactive) | > 100 µM (inactive) | > 100 µM (inactive) | 63.2 µM (inactive) | > 100 µM
CN1N=C2NCCNC3=NN(C)/C(=N/CC/N=C/1S2)S3 | > 100 µM (inactive) | > 100 µM (inactive) | > 100 µM (inactive) | > 100 µM (inactive) | > 100 µM (inactive) | > 100 µM (inactive) | > 100 µM (inactive) | > 100 µM (inactive) | > 100 µM (inactive) | > 100 µM (inactive) | > 100 µM (inactive) | > 100 µM (inactive) | > 100 µM (inactive) | > 100 µM (inactive) | – | > 100 µM
NC(CCCNc1cccc(O)c1)C(=O)O (stereo not drawn) | > 100 µM (inactive) | > 100 µM (inactive) | > 100 µM (inactive) | > 100 µM (inactive) | – | – | > 100 µM (inactive) | > 100 µM (inactive) | > 100 µM (inactive) | – | > 100 µM (inactive) | > 100 µM (inactive) | > 100 µM (inactive) | > 100 µM (inactive) | > 100 µM (inactive) | > 100 µM
CCN(CC)CCC1CC/C(=C\c2ccc(OC)cc2)C1=O (stereo not drawn) | > 100 µM (inactive) | > 100 µM (inactive) | 47.8 µM (inactive) | 39.5 µM (inactive) | > 100 µM (inactive) | > 100 µM (inactive) | 58.5 µM (inactive) | 59.6 µM (inactive) | > 100 µM (inactive) | – | > 100 µM (inactive) | > 100 µM (inactive) | > 100 µM (inactive) | 17.5 µM (inactive) | 58.1 µM (inactive) | 38.7 µM
O=C1C(=Cc2ccc([N+](=O)[O-])o2)C(=O)N(CCc2ccccc2)S(=O)(=O)N1CCc1ccccc1 | 20.3 µM (inactive) | 17.1 µM (inactive) | 12.6 µM (inactive) | 19.3 µM (inactive) | > 100 µM (inactive) | > 100 µM (inactive) | 16.8 µM (inactive) | 19.2 µM (inactive) | 24.7 µM (inactive) | 16.8 µM (inactive) | 28.9 µM (inactive) | 21.8 µM (inactive) | > 100 µM (inactive) | 16.9 µM (inactive) | 45.3 µM (inactive) | 16.3 µM
CC(C)(c1ccccc1)c1ccc(OC#N)cc1 | > 58.1 µM (inactive) | 68.4 µM (inactive) | 36.4 µM (inactive) | 37.3 µM (inactive) | > 100 µM (inactive) | > 75 µM (inactive) | > 78.3 µM (inactive) | 35.2 µM (inactive) | 51.5 µM (inactive) | 68.9 µM (inactive) | > 100 µM (inactive) | 42 µM (inactive) | > 78 µM (inactive) | > 95.1 µM (inactive) | 49.1 µM (inactive) | 15.2 µM
C=C[C@@]1(O)CCCC2=C(C(=O)OCC)CC[C@]21C | > 100 µM (inactive) | > 100 µM (inactive) | 36.1 µM (inactive) | > 100 µM (inactive) | > 100 µM (inactive) | > 100 µM (inactive) | > 100 µM (inactive) | 26.1 µM (inactive) | > 100 µM (inactive) | > 100 µM (inactive) | > 100 µM (inactive) | > 100 µM (inactive) | 47.5 µM (inactive) | – | > 100 µM (inactive) | > 100 µM
CC(C)Cc1cc(CCC(=O)Nc2ccccc2[N+](=O)[O-])nc(NC#N)n1 | > 100 µM (inactive) | > 100 µM (inactive) | > 100 µM (inactive) | > 100 µM (inactive) | > 100 µM (inactive) | > 100 µM (inactive) | > 100 µM (inactive) | > 100 µM (inactive) | > 100 µM (inactive) | > 100 µM (inactive) | > 100 µM (inactive) | > 100 µM (inactive) | > 100 µM (inactive) | > 100 µM (inactive) | > 100 µM (inactive) | > 100 µM
C[C@]1(CO)CCC[C@@]2(C)C1CC[C@H]1CC3C[C@]12CC[C@]3(C)O (stereo partly drawn) | > 100 µM (inactive) | 74.6 µM (inactive) | 5.22 µM (inactive) | > 100 µM (inactive) | > 10 µM (inactive) | > 100 µM (inactive) | 2.86 µM (inactive) | 2.77 µM (inactive) | > 100 µM (inactive) | 83.8 µM (inactive) | > 100 µM (inactive) | > 100 µM (inactive) | > 100 µM (inactive) | > 100 µM (inactive) | > 10 µM (inactive) | > 100 µM
CCOC(=O)Oc1c(OC)cc(C(=O)NC2CCc3cc(OC)c(OC)c(OC)c3-c3ccc(SC)c(=O)cc32)cc1OC (stereo not drawn) | 0.239 µM (active) | 0.537 µM (active) | < 0.007 µM (active) | 0.0728 µM (active) | 0.0506 µM (active) | 0.0378 µM (active) | 0.0386 µM (active) | 0.157 µM (active) | 0.0471 µM (active) | 0.0439 µM (active) | 0.092 µM (active) | 0.0916 µM (active) | 0.324 µM (active) | 0.0528 µM (active) | 1.5 µM (inactive) | 0.445 µM
COc1cc2c[n+](C)c3c4cc(OC)c(OC)cc4c(OCCCCCCCCOc4cc5c6cc(OC)c(OC)cc6c[n+](C)c5c5cc(OC)c(OC)cc45)cc3c2cc1OC | 30.6 µM (inactive) | > 100 µM (inactive) | 2.23 µM (inactive) | > 100 µM (inactive) | > 100 µM (inactive) | 72.8 µM (inactive) | > 100 µM (inactive) | 31.6 µM (inactive) | > 100 µM (inactive) | > 100 µM (inactive) | > 100 µM (inactive) | > 100 µM (inactive) | 17.4 µM (inactive) | > 100 µM (inactive) | > 100 µM (inactive) | > 100 µM
CN1C(=O)C(=O)c2cc3c(c4c2c1cc1ccccc14)OCO3 [CEPHARADIONE A] | 7.23 µM (inactive) | 18.8 µM (inactive) | 38.5 µM (inactive) | > 100 µM (inactive) | 37.6 µM (inactive) | 18.3 µM (inactive) | 30.8 µM (inactive) | 17.9 µM (inactive) | 25.2 µM (inactive) | 40.7 µM (inactive) | 24.1 µM (inactive) | 21.9 µM (inactive) | 47.4 µM (inactive) | 16.9 µM (inactive) | 20.2 µM (inactive) | 36.1 µM

— ChEMBL document CHEMBL1201862, “PubChem BioAssay data set” (2004)
